Measured values as given in BindingDB's records for doi:10.1021/jm960541s (Upjohn, 1996).

How the values were obtained:
[1] = biological target: T1, Dimer of Gag-Pol polyprotein [489-587] (Human immunodeficiency virus 1, UniProt P12497); assay: Protease Inhibition Assay; details: pH 5; 22 °C
T1 construct: 489-587
Text: (§1) HIV-1 protease was purified and refolded from E. coli inclusion bodies. The substrate used spans the p17-p24 processing site (R-V-S-Q-N-Y-P-I-V-Q-N-K) and was derivatized with biotin and fluorescein isothiocyanate (FITC) at the amino and carboxy termini. In the presence of HIV-l protease, the substrate is rapidly cleaved into two parts. The biotinylated amino terminal fragment binds to the avidin beads while the FITC-containing carboxy1 terminal fragment is removed through the membrane. […] The bound fluorescence is obtained by processing on an IDEXX Screen Machine. Determination of Ki values with this assay requires analysis under conditions in which substrate concentration resides substantially below Km and the inhibitor concentrations greatly exceeds the Ki value and the enzyme concentration.

[2] = biological target: T2, Dimer of Gag-Pol polyprotein [489-587] (Human immunodeficiency virus 1, UniProt P04585); assay: Protease Inhibition Assay; details: pH 5; 22 °C
T2 construct: 489-587
Text: as §1

Row | Compound | Ki [1] [nM] | Ki [2] [nM]
1 | CCCC1(CCc2ccccc2)CC(=O)C(C(CC)c2cccc(NS(=O)(=O)c3cn(C)cn3)c2)C(=O)O1 (configuration not stated) [N-(3-{1-[4-hydroxy-2-oxo-6-(2-phenylethyl)-6-propyl-5,6-dihydro-2H-pyran-3-yl]propyl}phenyl)-1-methyl-1H-imidazole-4-sulfonamide] | 1 | –
2 | CCC[C@]1(CCc2ccccc2)CC(=O)C([C@H](CC)c2cccc(NS(=O)(=O)c3ccc(C(F)(F)F)cn3)c2)C(=O)O1 (stereo partly drawn) [N-{3-[(1R)-1-[(6S)-4-hydroxy-2-oxo-6-(2-phenylethyl)-6-propyl-5,6-dihydro-2H-pyran-3-yl]propyl]phenyl}-5-(trifluoromethyl)pyridine-2-sulfonamide] | – | 0.018
3 | CCC[C@@]1(CCc2ccccc2)CC(=O)C([C@H](CC)c2cccc(NS(=O)(=O)c3ccc(C#N)cn3)c2)C(=O)O1 (stereo partly drawn) [5-cyano-N-{3-[(1R)-1-[(6R)-4-hydroxy-2-oxo-6-(2-phenylethyl)-6-propyl-5,6-dihydro-2H-pyran-3-yl]propyl]phenyl}pyridine-2-sulfonamide] | – | 0.007
4 | CCC[C@@]1(CCc2ccccc2)CC(=O)C([C@@H](CC)c2cccc(NS(=O)(=O)c3cn(C)cn3)c2)C(=O)O1 (stereo partly drawn) [N-{3-[(1S)-1-[(6R)-4-hydroxy-2-oxo-6-(2-phenylethyl)-6-propyl-5,6-dihydro-2H-pyran-3-yl]propyl]phenyl}-1-methyl-1H-imidazole-4-sulfonamide] | – | 0.3
5 | CCC[C@]1(CCc2ccccc2)CC(=O)C([C@@H](CC)c2cccc(NS(=O)(=O)c3ccc(C#N)cn3)c2)C(=O)O1 (stereo partly drawn) [5-cyano-N-{3-[(1S)-1-[(6S)-4-hydroxy-2-oxo-6-(2-phenylethyl)-6-propyl-5,6-dihydro-2H-pyran-3-yl]propyl]phenyl}pyridine-2-sulfonamide] | – | 0.12
6 | CCC[C@@]1(CCc2ccccc2)CC(=O)C([C@@H](CC)c2cccc(NS(=O)(=O)c3ccc(C(F)(F)F)cn3)c2)C(=O)O1 (stereo partly drawn) [N-{3-[(1S)-1-[(6R)-4-hydroxy-2-oxo-6-(2-phenylethyl)-6-propyl-5,6-dihydro-2H-pyran-3-yl]propyl]phenyl}-5-(trifluoromethyl)pyridine-2-sulfonamide] | – | 0.032
7 | CCC[C@]1(CCc2ccccc2)CC(=O)C([C@H](CC)c2cccc(NS(=O)(=O)c3ccc(C#N)cn3)c2)C(=O)O1 (stereo partly drawn) [5-cyano-N-{3-[(1R)-1-[(6S)-4-hydroxy-2-oxo-6-(2-phenylethyl)-6-propyl-5,6-dihydro-2H-pyran-3-yl]propyl]phenyl}pyridine-2-sulfonamide] | – | 0.04
8 | CCC[C@]1(CCc2ccccc2)CC(=O)C([C@@H](CC)c2cccc(NS(=O)(=O)c3ccc(C(F)(F)F)cn3)c2)C(=O)O1 (stereo partly drawn) [N-{3-[(1S)-1-[(6S)-4-hydroxy-2-oxo-6-(2-phenylethyl)-6-propyl-5,6-dihydro-2H-pyran-3-yl]propyl]phenyl}-5-(trifluoromethyl)pyridine-2-sulfonamide] | – | 0.22
9 | CCC[C@@]1(CCc2ccccc2)CC(=O)C([C@H](CC)c2cccc(NS(=O)(=O)c3cn(C)cn3)c2)C(=O)O1 (stereo partly drawn) [N-{3-[(1R)-1-[(6R)-4-hydroxy-2-oxo-6-(2-phenylethyl)-6-propyl-5,6-dihydro-2H-pyran-3-yl]propyl]phenyl}-1-methyl-1H-imidazole-4-sulfonamide] | – | 0.06
10 | CCC[C@@]1(CCc2ccccc2)CC(=O)C([C@@H](CC)c2cccc(NS(=O)(=O)c3ccc(C#N)cn3)c2)C(=O)O1 (stereo partly drawn) [5-cyano-N-{3-[(1S)-1-[(6R)-4-hydroxy-2-oxo-6-(2-phenylethyl)-6-propyl-5,6-dihydro-2H-pyran-3-yl]propyl]phenyl}pyridine-2-sulfonamide] | – | 0.1
11 | CCC[C@]1(CCc2ccccc2)CC(=O)C([C@H](CC)c2cccc(NS(=O)(=O)c3cn(C)cn3)c2)C(=O)O1 (stereo partly drawn) [N-{3-[(1R)-1-[(6S)-4-hydroxy-2-oxo-6-(2-phenylethyl)-6-propyl-5,6-dihydro-2H-pyran-3-yl]propyl]phenyl}-1-methyl-1H-imidazole-4-sulfonamide] | – | 0.12
12 | CCCC1(CCc2ccccc2)CC(=O)C(C(CC)c2cccc(NS(=O)(=O)c3ccc(C#N)cc3)c2)C(=O)O1 (configuration not stated) [4-cyano-N-(3-{1-[4-hydroxy-2-oxo-6-(2-phenylethyl)-6-propyl-5,6-dihydro-2H-pyran-3-yl]propyl}phenyl)benzene-1-sulfonamide] | 8 | –
13 | CCCC1(CCc2ccccc2)CC(=O)C(C(CC)c2cccc(NS(=O)(=O)c3cccc4cccnc34)c2)C(=O)O1 (configuration not stated) [N-(3-{1-[4-hydroxy-2-oxo-6-(2-phenylethyl)-6-propyl-5,6-dihydro-2H-pyran-3-yl]propyl}phenyl)quinoline-8-sulfonamide] | 3 | –
14 | CCC[C@@]1(CCc2ccccc2)CC(=O)C([C@H](CC)c2cccc(NS(=O)(=O)c3ccc(C(F)(F)F)cn3)c2)C(=O)O1 (stereo partly drawn) [N-{3-[(1R)-1-[(6R)-4-hydroxy-2-oxo-6-(2-phenylethyl)-6-propyl-5,6-dihydro-2H-pyran-3-yl]propyl]phenyl}-5-(trifluoromethyl)pyridine-2-sulfonamide] | – | 0.008
15 | CCCC1(CCc2ccccc2)CC(=O)C(C(CC)c2cccc(NS(=O)(=O)c3ccc(F)cc3)c2)C(=O)O1 (configuration not stated) [4-fluoro-N-(3-{1-[4-hydroxy-2-oxo-6-(2-phenylethyl)-6-propyl-5,6-dihydro-2H-pyran-3-yl]propyl}phenyl)benzene-1-sulfonamide] | 6 | –
16 | CCC[C@]1(CCc2ccccc2)CC(=O)C([C@@H](CC)c2cccc(NS(=O)(=O)c3cn(C)cn3)c2)C(=O)O1 (stereo partly drawn) [N-{3-[(1S)-1-[(6S)-4-hydroxy-2-oxo-6-(2-phenylethyl)-6-propyl-5,6-dihydro-2H-pyran-3-yl]propyl]phenyl}-1-methyl-1H-imidazole-4-sulfonamide] | – | 1
17 | CCCC1(CCc2ccccc2)CC(=O)C(C(CC)c2cccc(NS(=O)(=O)c3ccccc3)c2)C(=O)O1 (configuration not stated) [N-(3-{1-[4-hydroxy-2-oxo-6-(2-phenylethyl)-6-propyl-5,6-dihydro-2H-pyran-3-yl]propyl}phenyl)benzenesulfonamide] | 17 | –
